Results from PubChem BioAssay AID1199 (EPA DSSTox, 2008).
Active and inactive are the calls of the source.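 Rule for the calls: active = a tumour-causing dose and a tumour site recorded for mice in at least one sex group; inconclusive = only government mouse studies exist and were judged inadequate; inactive = mouse studies exist but none gave tumours.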

Test system: mouse carcinogenicity bioassay, TD50 from CPDB
Test: DSSTox (CPDBAS) Carcinogenic Potency Database Summary Mouse Bioassay Results
Method in brief: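 Values are TD50 carcinogenic potencies from mouse chronic bioassays, taking the most positive result for each sex-species. Sources are published literature and NCI/NTP studies; target sites reflect author-reported positive findings.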

[1] = TD50_Mouse_Note: no positive results, TargetSites_Mouse_Female: no positive results
[2] = TD50_Mouse_Note: TD50 is harmonic mean of more than one positive test, TargetSites_Mouse_Female: liver
[3] = TD50_Mouse_Note: TD50 is harmonic mean of more than one positive test, TargetSites_Mouse_Female: lung
[4] = TD50_Mouse_Note: TD50 is harmonic mean of more than one positive test, TargetSites_Mouse_Female: stomach
[5] = TargetSites_Mouse_Female: no positive results
[6] = TD50_Mouse_Note: TD50 is harmonic mean of more than one positive test, TargetSites_Mouse_Female: liver, lung, stomach

SMILES: O=C1C(c2[nH]c3ccc(S(=O)(=O)O)cc3c2O)=Nc2ccc(S(=O)(=O)O)cc21
- outcome [1]: inactive; no positive results

SMILES: COP(=O)(OC)OC
- Potency (TargetSites_Mouse_Female: uterus): 2.39 mmol/kg/day

SMILES: COc1cc(N=Nc2ccccc2)ccc1N
- Potency (TargetSites_Mouse_Female: liver): 0.265 mmol/kg/day

SMILES: ClCC(Cl)Cl
- Potency (TD50_Mouse_Note: TD50 is harmonic mean of more than one positive test, TargetSites_Mouse_Female: adrenal gland, liver): 0.412 mmol/kg/day

SMILES: Cc1cc(O)c2c(c1O)C(=O)C13C(=C2O)C(=O)C2C(O)C1C1C(O)C3C(=O)C3=C(O)c4c(O)cc(C)c(O)c4C(=O)C321 (stereo unspecified)
- Potency [2]: 0.0324 mmol/kg/day

SMILES: C=C1C(C)(C)[C@@]2(Cl)C(Cl)[C@]1(Cl)C(Cl)(Cl)C2(Cl)Cl (stereo partly specified)
- Potency (TD50_Mouse_Note: TD50 is harmonic mean of more than one positive test, TargetSites_Mouse_Female: no positive results): 0.00234 mmol/kg/day

SMILES: Cc1ccc(S(=O)(=O)NC(=O)NN2CCCCCC2)cc1
- outcome [1]: inactive; no positive results

SMILES: O=[O+][O-]
- Potency [3]: 0.0392 mmol/kg/day

SMILES: O=[N+]([O-])c1ccc(Cl)c([N+](=O)[O-])c1
- outcome [1]: inactive; no positive results

SMILES: O=[N+]([O-])c1ccc(NCCO)c(OCCO)c1
- outcome [1]: inactive; no positive results

SMILES: O=CNNC=O
- Potency [3]: 7.59 mmol/kg/day

SMILES: CC(=O)NNC(=O)c1ccncc1
- Potency [3]: 1.84 mmol/kg/day

SMILES: CCN(CC)C(=S)[S-].CCN(CC)C(=S)[S-].[Cd+2]
- outcome [1]: inactive; no positive results

SMILES: O=c1c(O)c(-c2ccc(O)c(O)c2)oc2cc(O)cc(O)c12
- outcome [1]: inactive; no positive results

SMILES: Cn1cc(C(=O)[C@@H]2CCc3nc[nH]c3C2)c2ccccc21
- outcome [1]: inactive; no positive results

SMILES: Cc1ccc([N+](=O)[O-])cc1N
- Potency (TD50_Mouse_Note: TD50 is harmonic mean of more than one positive test, TargetSites_Mouse_Female: liver, vascular system): 1.82 mmol/kg/day

SMILES: CCCCOCCO
- Potency [4]: 14.5 mmol/kg/day

SMILES: COc1c(Cl)c(Cl)c(Cl)c(Cl)c1Cl
- Potency [5]: 0.243 mmol/kg/day

SMILES: C/C=C/C=C/C=O
- Potency [4]: 1.83 mmol/kg/day

SMILES: CN(C)c1ccc(C(=C2C=CC(=[N+](C)C)C=C2)c2ccc(N(C)C)cc2)cc1
- Potency (TD50_Mouse_Note: TD50 is harmonic mean of more than one positive test, TargetSites_Mouse_Female: harderian gland, hematopoietic system, liver): 0.222 mmol/kg/day

SMILES: ClCOCCCCCCOCCl
- outcome [1]: inactive

SMILES: O=C(O)Cc1cccc2ccccc12
- outcome [1]: inactive; no positive results

SMILES: c1ccc2occc2c1
- Potency [6]: 0.212 mmol/kg/day

SMILES: O=C1NCCN1
- outcome [1]: inactive; no positive results

SMILES: Oc1ccc(Cl)cc1Cc1ccccc1
- Potency [5]: 6.17 mmol/kg/day

SMILES: Cc1ccc(/C(=C\CN2CCCC2)c2ccccn2)cc1
- outcome [1]: inactive; no positive results

SMILES: O=P(OCC(Br)CBr)(OCC(Br)CBr)OCC(Br)CBr (stereo unspecified)
- Potency [6]: 0.183 mmol/kg/day

SMILES: O=Nc1ccc(NO)cc1
- outcome [1]: inactive; no positive results

SMILES: CCN=c1cc2oc3cc(NCC)c(C)cc3c(-c3ccccc3C(=O)OCC)c-2cc1C
- outcome [1]: inactive; no positive results

SMILES: CCOC(=O)C(C)(C)Oc1ccc(Cl)cc1
- outcome [1]: inactive; no positive results

SMILES: Cc1cc(O)c2c(c1)C(=O)c1cc(O)cc(O)c1C2=O
- outcome [1]: inactive; no positive results

SMILES: CCN(Cc1cccc(S(=O)(=O)O)c1)c1ccc(C(=C2C=CC(=[N+](CC)Cc3cccc(S(=O)(=O)O)c3)C=C2)c2ccccc2S(=O)(=O)[O-])cc1
- outcome [1]: inactive; no positive results

SMILES: Clc1c(Cl)c(Cl)c(Cl)c(Cl)c1Cl
- Potency [2]: 0.229 mmol/kg/day

SMILES: O=C1CCCCC1
- outcome [1]: inactive; no positive results

SMILES: COc1cc(NC(=O)C(N=Nc2ccc(-c3ccc(N=NC(C(C)=O)C(=O)Nc4cc(OC)c(Cl)cc4OC)c(Cl)c3)cc2Cl)C(C)=O)c(OC)cc1Cl (stereo unspecified)
- outcome (TargetSites_Mouse_BothSexes: no positive results): inactive

SMILES: CC(C)C=O
- outcome [1]: inactive; no positive results

SMILES: O=C1OC(c2ccc(O)cc2)(c2ccc(O)cc2)c2ccccc21
- Potency (TD50_Mouse_Note: TD50 is harmonic mean of more than one positive test, TargetSites_Mouse_Female: hematopoietic system, ovary): 3.68 mmol/kg/day

SMILES: CC(C)NCC(O)COc1cccc2ccccc12 (stereo unspecified)
- outcome [1]: inactive; no positive results

SMILES: Cc1ccc(N=Nc2c(O)c(S(=O)(=O)O)cc3ccc(S(=O)(=O)O)cc23)c(C)c1
- Potency [2]: 1.49 mmol/kg/day

SMILES: CC(CN1CC(=O)NC(=O)C1)N1CC(=O)NC(=O)C1 (stereo unspecified)
- Potency (TD50_Mouse_Note: positive test results only by intraperitoneal or intravenous injection, TargetSites_Mouse_Female: hematopoietic system): 0.0883 mmol/kg/day

SMILES: C[C@](N)(Cc1ccc(O)c(O)c1)C(=O)O
- outcome [1]: inactive; no positive results

SMILES: CCCCN(CCCC)C(=S)[S-].CCCCN(CCCC)C(=S)[S-].[Zn+2]
- outcome [1]: inactive; no positive results

SMILES: CCCCNN
- Potency [3]: 0.0971 mmol/kg/day

SMILES: Cc1ccc(OP(=O)(Oc2ccc(C)cc2)Oc2ccc(C)cc2)cc1
- outcome [1]: inactive; no positive results

SMILES: CCNN
- Potency (TD50_Mouse_Note: TD50 is harmonic mean of more than one positive test, TargetSites_Mouse_Female: lung, vascular system): 0.0679 mmol/kg/day

SMILES: Cc1ccc(N)cc1
- Potency [2]: 0.581 mmol/kg/day
